Laboratory results: the supplement of paper PMC10307832

How the values were obtained:
Assay in all cases: relative viability (nuclei count vs DMSO), 5 days (fraction); higher = more cells survive
[1] = compound: C[As](C)SC[C@H](NC(=O)CC[C@H](N)C(=O)O)C(=O)NCC(=O)O [Darinaparsin] + C[C@@H](Oc1cc(-c2cnn(C3CCNCC3)c2)cnc1N)c1c(Cl)ccc(F)c1Cl [Crizotinib] (partner 1 µM)
Summary of the method: (§1)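 Lung cancer cell lines were seeded in 1536-well plates and dosed by pin tool the next day, with either a single drug or a fixed anchor-drug dose combined with five library-drug doses (not always all listed) spaced in √10 steps. Five days later, one step fixed the cells and stained their nuclei (final 0.05% Triton X-100, 1% formaldehyde, 1 ug/ml Hoechst), and nuclei were counted on 4× images. Relative viability is the nuclei count in treated wells divided by the count in vehicle wells, and each value is the median of duplicate plates.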

AZ628 + Tozasertib = compound: CC1=C(C=C(C=C1)NC(=O)C2=CC(=CC=C2)C(C)(C)C#N)NC3=CC4=C(C=C3)N=CN(C4=O)C [AZ628] + Cc1cc(Nc2cc(N3CCN(C)CC3)nc(Sc3ccc(NC(=O)C4CC4)cc3)n2)n[nH]1 [Tozasertib] (partner 0.1 µM)
Summary of the method: as §1

QS11 + OSI-027 = compound: C1CC2=C(C1)C=C(C=C2)OC3=NC(=C4C(=N3)N(C=N4)CC5=CC=C(C=C5)C6=CC=CC=C6)N[C@@H](CC7=CC=CC=C7)CO [QS11] + COc1cccc2cc(-c3nc([C@H]4CC[C@H](C(=O)O)CC4)n4ncnc(N)c34)[nH]c12 [OSI-027] (partner 0.5 µM)
Summary of the method: as §1

[2] = compound: C[As](C)SC[C@H](NC(=O)CC[C@H](N)C(=O)O)C(=O)NCC(=O)O [Darinaparsin] + O=C(CCCCCCC(=O)Nc1ccccc1)NO [Vorinostat] (partner 1 µM)
Summary of the method: as §1

Cell Line | relative viability ([1]; first compound 0.08 µM) | relative viability ([1]; first compound 0.8 µM) | relative viability ([1]; first compound 2.53 µM) | relative viability ([1]; first compound 8 µM) | relative viability (AZ628 + Tozasertib; first compound 0.08 µM) | relative viability (AZ628 + Tozasertib; first compound 0.253 µM) | relative viability (AZ628 + Tozasertib; first compound 0.8 µM) | relative viability (AZ628 + Tozasertib; first compound 2.53 µM) | relative viability (AZ628 + Tozasertib; first compound 8 µM) | relative viability (QS11 + OSI-027; first compound 0.08 µM) | relative viability (QS11 + OSI-027; first compound 0.253 µM) | relative viability (QS11 + OSI-027; first compound 2.53 µM) | relative viability (QS11 + OSI-027; first compound 8 µM) | relative viability ([2]; first compound 0.08 µM) | relative viability ([2]; first compound 0.8 µM) | relative viability ([2]; first compound 2.53 µM) | relative viability ([2]; first compound 8 µM) | relative viability (QS11 + OSI-027; first compound 0.8 µM)
EKVX | 1.22 | 0.935 | 0.813 | 1.23 | 0.396 | 0.381 | 0.392 | 0.467 | 0.233 | 0.644 | 0.635 | 0.596 | 0.693 | 0.787 | 0.653 | 0.764 | 0.737 | 
EMC-BAC-2 | 0.812 | 0.772 | 0.676 | 0.801 | 0.294 | 0.335 | 0.381 | 0.349 | 0.362 | 0.391 | 0.397 | 0.373 | 0.337 | 0.554 | 0.417 | 0.546 | 0.42 | 0.452
EPLC-272H | 1.02 | 0.529 | 0.649 | 0.89 | 0.28 | 0.179 | 0.289 | 0.297 | 0.248 |  | 0.287 | 0.259 | 0.26 | 0.324 | 0.42 | 0.422 | 0.4 | 0.253
H3255 | 1.14 | 0.773 | 0.789 | 0.895 | 0.863 | 0.613 | 0.915 | 0.62 | 0.487 | 0.593 | 0.675 | 0.558 | 0.608 | 0.746 | 0.788 | 0.745 | 0.895 | 
HARA | 1.46 | 1.05 | 0.783 | 1.27 | 0.144 | 0.122 | 0.111 | 0.0923 | 0.0666 | 0.41 | 0.453 | 0.457 | 0.595 | 0.582 | 0.532 | 0.575 | 0.621 | 
HCC-15 | 0.931 | 0.743 | 0.784 | 1.06 | 0.389 | 0.491 | 0.273 | 0.337 | 0.135 | 0.641 | 0.674 | 0.665 | 0.475 | 0.911 | 0.839 | 0.851 | 0.901 | 0.646
HCC-44 | 0.875 | 0.872 | 0.618 | 0.929 | 1.16 | 0.956 | 0.941 | 0.332 | 0.532 | 0.606 | 0.531 | 0.593 | 0.378 | 1.24 | 1.12 | 1.05 | 1.09 | 0.512
HCC-78 | 0.36 | 0.316 | 0.332 | 0.348 | 0.445 | 0.383 | 0.463 | 0.346 | 0.465 | 0.405 | 0.351 | 0.435 | 0.478 | 0.487 | 0.422 | 0.465 | 0.43 | 0.35
HCC-366 | 1.26 | 0.523 | 0.265 | 0.828 | 0.0912 | 0.0518 | 0.0747 | 0.0418 | 0.0451 | 0.877 | 0.749 | 0.742 | 0.257 | 0.454 |  | 0.339 | 0.436 | 
